{"source": "paper PMC8122671", "about": "“New Succinimides with Potent Anticancer Activity: Synthesis, Activation of Stress Signaling Pathways and Characterization of Apoptosis in Leukemia and Cervical Cancer Cells” (International Journal of Molecular Sciences, 2021)", "key": {"[1]": {"test": "Lipophilicity (logkw) by reversed-phase chromatography (RP-HPLC)", "type": "physicochemical", "details": "for logkw (Experimental): extrapolated to pure water; for logkw (Table S2): intercept of logk vs methanol fraction, n = 4", "description": "The main goal of the synthetic part was the synthesis of new derivatives of dicarboximides with decreased lipophilicity in comparison to the lead compounds, i.e., Ia–Ie and II. To reduce the lipophilicity of the new dicarboximides, a hydroxyalkyl chain connected with an aliphatic amine was introduced to the imides (Scheme 1). At the same time, the imide scaffold in derivatives from group 2 and 3 was the same as in lead compounds Ia–Ie and II, respectively (Figure 1). The structure of the imide was changed in derivatives 1b–1g. The lipophilicity of new derivatives was calculated using the Osiris Property Explorer program. For some compounds, lipophilicity was determined experimentally by a reversed-phase chromatography (detailed description is given in Materials and Methods and in the Supplementary Data, Table S2). Table 1 summarizes the calculated (clogP) and experimental (logkw) parameters of the lipophilicity of new derivatives.\nThe reversed-phase high-performance liquid chromatography (RP-HPLC) analysis was performed on a Merck–Hitachi LaChrom Elite System (Merck, Darmstadt, Germany) with diode array detector L-2455, thermostat L-2300, pump L-2130, and autosampler L-2200 and with the Waters XTerra MS RP-18 (3.5 μm, 150 × 4.6 mm) chromatographic column (Waters, Milford, MA, USA) as the stationary phase. The mobile phase consisted of methanol, water, and 0.1% (v/v) formic acid and was degassed by the use of the built-in membrane degasser. The methanol gradient grade for HPLC was purchased from Merck (Merck, Darmstadt, Germany) and formic acid from Polish Reagents (Polish Reagents, Gliwice, Poland); double-distilled water was used. Then, 5 μL of methanolic solutions (0.1%; m/v) of selected samples were applied to the chromatographic column by the use of an autosampler Hitachi L-2200 (LaChrom Elite, Hitachi-Merck, Darmstadt, Germany). The analysis was performed with the flow rate of 0.7 mL min^−1 in isocratic mode using various concentrations of organic modifier (methanol) in binary polar mobile phases; percentages of methanol in water were 45–70% (%, v/v) and changed by 5% per step. Chromatograms were detected at 254 nm and the temperature of the column was 25 °C. All experiments were repeated in triplicate, and the final results were taken to be the arithmetic means. Dead time was measured by the use of uracil (Calbiochem. Merck, Darmstadt, Germany). Statistical and regression analyses were performed using Statistica (ver. 13.3 for Windows). The chromatographic lipophilicity parameters ( logkW ) for selected samples were obtained by the extrapolation of the retention parameter logk to pure water, according to Equation (1):(1) logk=logkw−S·ϕ; where logkW is the value of the retention factor of a substance in pure water, S is the slope of the regression curve, and ϕ is the concentration of the organic modifier. The values of logk were calculated based on the raw HPLC data using the formula (2):(2) logk=logtR−t0/t0; where tR is the retention time and t0 is the dead retention time (determined for uracil).\nThe chromatographic lipophilicity parameters (logkௐ ) for selected samples were ob‐ tained by the extrapolation of the retention parame te r logk to pure water, according to […]\nwhere logkௐ is the value of the retention factor of a substance in pure water, S is the slope of the regression curve, and φ is the concentration of the organic modifier. The values of logk were ca lcula ted based on the raw HPLC data using the formula: […]\nlogk ൌ log ሺ௧ೃ ି ௧బ௧బ ሻ (2) where tோ is the retention time and t଴ is the dead retention time (determined for ura‐ cil). The goodness of fit of the equation (1) to the experimental data was classified accord‐ ing to Jaffe (Jaffe, H. H. A Reexamination of the Hammet Equation. Chem. Rev. 1953, 53, In our RP‐HPLC experiments, the goodness of fit of the equation to the experi‐ mental data are excellent in most ca ses (r > 0.99). The F statistic val ues are, in all cases, […]"}, "[2]": {"test_system": "plasmid DNA (pcDNA3.1HisC)", "test": "DNA-cleavage protection assay (BamHI digestion of plasmid DNA)", "type": "biochemical", "details": "100 µM, overnight 37 °C, then BamHI 3 h", "procedure": "A DNA-cleavage protection assay has been successfully used for the identification of compounds that bind DNA either covalently or noncovalently. Such binding may result in DNA being less susceptible to enzymatic cleavage. […] It was also reported that naphtalenoimides or indolomaleimides intercalate into DNA [13, 14]. […] In CD studies, a synthetic 23-nt duplex DNA or bovine thymus DNA was incubated with compound Ic or daunorubicin (reference compound). […] Using a DNA-cleavage protection assay, we investigated whether selected compounds 2c, 2d, and 2f and 3c, 3d, and 3f interact with a plasmid DNA, resulting in increased resistance to endonucleolytic cleavage. Plasmid DNA (pcDNA3.1HisC) containing a single BamHI cleavage site was incubated with test compounds and subsequently digested with BamH1 restriction endonuclease. Daunorubicin (a strong DNA-intercalating agent) was used as a reference compound. Non-digested plasmid DNA existed predominantly in the circular form; however, the superhelical and linear forms were also detected (Figure 5, lane 1). […] This observation can be explained by the higher lipophilicity of 3c, 3d, and 3f compared to 2c, 2d, and 2f, which may facilitate their more efficient binding to DNA.\nFirst, 0.5 μg of plasmid DNA (pcDNAHisC, total length 5.5 kbp) containing a unique BamHI restriction site was dissolved in a 1× BamHI reaction buffer and incubated overnight at 37 °C with the test compounds or daunorubicin. Daunorubicin, a strong intercalating agent, was used as a positive control. The concentration of the test compounds and daunorubicin samples was 100 µM. In the next step, the reaction mixtures were digested with BamHI restriction endonuclease (2 U/μL) for 3 h at 37 °C. The total reaction volume was 10 μL. Products of the reaction were subjected to the 1% agarose gel electrophoresis in TBE buffer. The gel was stained with ethidium bromide, and DNA fragments were visualized under a UV lamp (GBox, Syngene)."}}, "data": [{"smiles": "CC(C)(C)NCC(O)CN1C(=O)C2C(C1=O)C1(c3ccccc3)CC2(c2ccccc2)C(c2ccccc2)=C1c1ccccc1", "note": "(stereo not drawn) [3c, 4-[3-(tert-butylamino)-2-hydroxypropyl]-1,7,8,9-tetraphenyl-4-azatricyclo[5.2.1.0^2,6]dec-8-ene-3,5-dione]", "values": [{"measurement": "logkw (Experimental)", "setting": "[1]", "value": 6.06}, {"measurement": "logkw (Table S2)", "setting": "[1]", "value": 6.0611}, {"measurement": "protection of plasmid DNA from BamHI digestion (circular DNA left)", "setting": "[2]", "value": "interaction seems to be stronger"}]}, {"smiles": "CCC12C(=O)C(CC)(C(c3ccccc3)=C1c1ccccc1)C1C(=O)N(CC(O)CNC(C)(C)C)C(=O)C12", "note": "(stereo not drawn) [2c, 4-[3-(tert-butylamino)-2-hydroxypropyl]-1,7-diethyl-8,9-diphenyl-4-azatricyclo [5.2.1.0^2,6]dec-8-ene-3,5,10-trione]", "values": [{"measurement": "logkw (Experimental)", "setting": "[1]", "value": 4.74}, {"measurement": "logkw (Table S2)", "setting": "[1]", "value": 4.7442}, {"measurement": "protection of plasmid DNA from BamHI digestion (circular DNA left)", "setting": "[2]", "value": "the circular form was also detected"}]}, {"smiles": "CCN(CC)CC(O)CN1C(=O)C2C(C1=O)C1(c3ccccc3)CC2(c2ccccc2)C(c2ccccc2)=C1c1ccccc1", "note": "(stereo not drawn) [3d, 4-[3-(diethylamino)-2-hydroxypropyl]-1,7,8,9-tetraphenyl-4-azatricyclo[5.2.1.0^2,6]dec-8-ene-3,5-dione]", "values": [{"measurement": "logkw (Experimental)", "setting": "[1]", "value": 6.28}, {"measurement": "logkw (Table S2)", "setting": "[1]", "value": 6.2845}, {"measurement": "protection of plasmid DNA from BamHI digestion (circular DNA left)", "setting": "[2]", "value": "interaction seems to be stronger"}]}, {"smiles": "CCN(CC)CC(O)CN1C(=O)C2C(C1=O)C1(CC)C(=O)C2(CC)C(c2ccccc2)=C1c1ccccc1", "note": "(stereo not drawn) [2d, 4-[3-(diethylamino)-2-hydroxypropyl]-1,7-diethyl-8,9-diphenyl-4-azatricyclo [5.2.1.0^2,6]dec-8-ene-3,5,10-trione]", "values": [{"measurement": "logkw (Experimental)", "setting": "[1]", "value": 5.10}, {"measurement": "logkw (Table S2)", "setting": "[1]", "value": 5.1042}, {"measurement": "protection of plasmid DNA from BamHI digestion (circular DNA left)", "setting": "[2]", "value": "the circular form was also detected"}]}]}
